The target in data set [1] is human Somatostatin 4 Receptor (SSTR4) (Homo sapiens (Human), UniProt P31391). The data set can be described thus: cAMP assay with human somatostatin 4 receptor (hSSTR4 expressing H4 cells). In kind it is cell-based. The note with it: read-out: SSTR4 agonism EC50. In general terms: Cyclic AMP is a second messenger, typically raised through Gs and lowered through Gi signalling.

A further data set has as its target human SSTR4 (Homo sapiens (Human), UniProt P31391). Nature of the data set: Radioligand binding assay, CHO cell membranes expressing recombinant human SSTR4. The source says: (§1) Radioligand Binding Assays
(§2) Method description for binding assays with human Somatostatin receptors by use of CHO cell membranes expressing recombinant human SSTR1 or human SSTR2 or human SSTR3 or human SSTR4 or human SSTR5
(§3) Receptor binding assays refer to a technique in which labeled receptor ligands are used to detect binding to a receptor. In competition experiments test compounds, which are not labeled, compete with the binding side of a labeled ligand. The displacement of the labeled ligand by the test compound leads to a decreased signal.
(§4) For the binding experiments 200 μL of membrane homogenate from one of the following protein amounts is used: hSSTR1 (40 μg/well); hSSTR2 (25 μg/well); hSSTR3 (1.5 μg/well); hSSTR4 (0.5 μg/well); hSSTR5 (25 μg/well). The homogenate is incubated with 0.05 nM of radioligand ([3-125I-Tyr]-Somatostatin-(1-14)) in addition to increasing concentrations of a test compound or vehicle (100% binding) in a total volume of 250 μL using a Hepes buffer (10 mM, EDTA 1 mM, MgCl2 5 mM, pH7.6, BSA 0.5%, Bacitracin 0.003%, DMSO 1%) for 180 min at room temperature. The incubation is terminated by filtration with ice cold NaCl 0.9% through polyethyleneimine treated (0.3%) GF/B glass fiber filters using a cell harvester. The protein-bound radioactivity is measured in a suitable reader. The non-specific binding is defined as radioactivity bound in the presence of 1 μM Somatostatin-14 during the incubation period.
(§5) The analysis of the concentration-binding curves is performed by computer-assisted nonlinear least square curve fitting method using the model of one receptor binding site.
(§6) Selectivity data was obtained with the aid of the above described radioligand binding assays.

Another data set has as its target human SSTR1 (Homo sapiens (Human), UniProt P30872). Nature of the data set: Radioligand binding assay, CHO cell membranes expressing recombinant human SSTR1.
Source text: as §1, §2, §3, §4, §5, §6

For another data set, the target named is human SSTR2 (Homo sapiens (Human), UniProt P30874). The data set can be described thus: Radioligand binding assay, CHO cell membranes expressing recombinant human SSTR2.
Source text: as §1, §2, §3, §4, §5, §6

The target in a further data set is human SSTR3 (Homo sapiens (Human), UniProt P32745). The data set can be described thus: Radioligand binding assay, CHO cell membranes expressing recombinant human SSTR3.
Source text: as §1, §2, §3, §4, §5, §6

For the next data set, the target named is human SSTR5 (Homo sapiens (Human), UniProt P35346). Nature of the data set: Radioligand binding assay, CHO cell membranes expressing recombinant human SSTR5.
Source text: as §1, §2, §3, §4, §5, §6

A short description of the next data set: in vitro. The note with it: human, microsomes, pH 7.6.
For data set [2] the following is noted: human, microsomes.
A short description of data set [3]: Metabolic stability in pooled human liver microsomes. As to conditions: 1 μM test compound, 37° C. A general note: Liver microsomes are a subcellular fraction often used to study metabolism.

Data on 7 compounds can be found in patent publication US10071974B2, “Morpholine and 1,4-oxazepane amides as somatostatin receptor subtype 4 (SSTR4) agonists” (Boehringer Ingelheim International GmbH, priority 2014, dated 2018).

Where two headings read alike, the source gives them in different places. Some results are limits rather than exact numbers.

Sequence of human SSTR2 (P30874 whole entry): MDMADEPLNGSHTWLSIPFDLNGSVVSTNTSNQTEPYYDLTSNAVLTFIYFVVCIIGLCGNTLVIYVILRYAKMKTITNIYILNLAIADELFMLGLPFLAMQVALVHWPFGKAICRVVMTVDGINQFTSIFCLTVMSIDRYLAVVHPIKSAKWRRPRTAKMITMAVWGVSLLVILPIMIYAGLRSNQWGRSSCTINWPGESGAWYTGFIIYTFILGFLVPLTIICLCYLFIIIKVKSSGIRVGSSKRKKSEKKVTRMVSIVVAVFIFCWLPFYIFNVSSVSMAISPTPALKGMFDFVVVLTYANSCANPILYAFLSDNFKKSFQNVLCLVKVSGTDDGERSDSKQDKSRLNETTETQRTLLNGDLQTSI
Sequence of human SSTR1 (P30872 whole entry): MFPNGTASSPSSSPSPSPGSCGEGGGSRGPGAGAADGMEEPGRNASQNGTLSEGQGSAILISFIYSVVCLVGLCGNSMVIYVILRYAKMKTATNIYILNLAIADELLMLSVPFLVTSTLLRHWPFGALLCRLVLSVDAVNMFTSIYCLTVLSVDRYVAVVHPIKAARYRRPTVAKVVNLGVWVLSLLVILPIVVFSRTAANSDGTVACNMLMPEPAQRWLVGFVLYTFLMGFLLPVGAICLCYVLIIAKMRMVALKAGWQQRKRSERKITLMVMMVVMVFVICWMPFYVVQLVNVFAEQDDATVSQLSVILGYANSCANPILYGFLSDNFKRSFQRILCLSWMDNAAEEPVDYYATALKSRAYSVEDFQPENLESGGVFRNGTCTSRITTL
Sequence of human SSTR3 (P32745 whole entry): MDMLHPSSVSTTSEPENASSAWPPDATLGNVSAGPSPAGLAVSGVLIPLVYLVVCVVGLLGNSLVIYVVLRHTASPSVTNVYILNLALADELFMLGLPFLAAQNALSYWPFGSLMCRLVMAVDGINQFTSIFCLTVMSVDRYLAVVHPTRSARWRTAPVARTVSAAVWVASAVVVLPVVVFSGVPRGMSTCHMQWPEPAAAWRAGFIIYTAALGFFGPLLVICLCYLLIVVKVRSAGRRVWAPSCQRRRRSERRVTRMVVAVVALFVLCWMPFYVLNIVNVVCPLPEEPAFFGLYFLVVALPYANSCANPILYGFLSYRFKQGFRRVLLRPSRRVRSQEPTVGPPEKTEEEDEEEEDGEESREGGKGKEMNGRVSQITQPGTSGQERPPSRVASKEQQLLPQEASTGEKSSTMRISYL
Sequence of human SSTR4 (P31391 whole entry): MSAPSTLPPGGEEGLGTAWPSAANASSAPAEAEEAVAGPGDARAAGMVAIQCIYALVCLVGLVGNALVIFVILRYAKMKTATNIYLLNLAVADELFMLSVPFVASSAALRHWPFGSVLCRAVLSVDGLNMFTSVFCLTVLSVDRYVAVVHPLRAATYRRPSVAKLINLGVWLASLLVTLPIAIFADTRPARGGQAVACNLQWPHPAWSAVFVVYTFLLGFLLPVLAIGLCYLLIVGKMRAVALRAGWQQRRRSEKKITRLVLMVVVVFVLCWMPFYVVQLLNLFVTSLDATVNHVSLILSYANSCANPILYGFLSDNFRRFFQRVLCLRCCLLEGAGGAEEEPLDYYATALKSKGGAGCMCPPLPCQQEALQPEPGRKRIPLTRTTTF
Sequence of human Somatostatin 4 Receptor (SSTR4) (P31391 whole entry): as above
Sequence of human SSTR5 (P35346 whole entry): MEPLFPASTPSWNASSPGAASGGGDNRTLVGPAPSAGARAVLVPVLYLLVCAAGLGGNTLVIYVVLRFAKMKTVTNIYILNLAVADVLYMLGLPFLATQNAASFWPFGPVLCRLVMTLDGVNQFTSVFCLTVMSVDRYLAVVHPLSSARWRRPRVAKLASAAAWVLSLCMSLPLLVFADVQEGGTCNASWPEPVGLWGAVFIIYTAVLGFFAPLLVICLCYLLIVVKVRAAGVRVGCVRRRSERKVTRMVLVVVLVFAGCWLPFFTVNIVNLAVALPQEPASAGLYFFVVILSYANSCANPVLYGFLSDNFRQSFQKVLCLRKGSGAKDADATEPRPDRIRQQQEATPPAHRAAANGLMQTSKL

For the compound `Cn1nc(C(C)(C)NC(=O)C2CNCCOC2)c2ccccc21` (single isomer, unassigned) [Example 21], the EC50 in [1] is 0.0032 µM. The Ki on human SSTR4 amounted to 0.0892 µM; on human SSTR1, 9.45 µM; at human SSTR2 it was 9.6 µM; at human SSTR3 it was 8.62 µM; on human SSTR5, 9.75 µM. Also, the half-life at 1 μM in “in vitro” is over 2.17 h.
Turning to `Cn1nc(C(C)(C)NC(=O)C2CNCCCO2)c2ccccc21` (single isomer, unassigned) [Example 24], the EC50 in data set [1] stood at 0.0362 µM. The Ki at human SSTR4 came to 0.523 µM; at human SSTR1, 9.45 µM; on human SSTR2, 9.6 µM; at human SSTR3, 8.62 µM; on human SSTR5, 9.75 µM. In the data set “in vitro”, this compound yielded a half-life at 1 μM of over 2.17 h.
For `CC(C)(NC(=O)C1CNCCOC1)c1noc2c(Cl)cccc12` (single isomer, unassigned) [Example 73], the “Half-life t1/2” value in [2] was over 2.17 h.
On to `Cn1nc(C(C)(C)NC(=O)[C@@H]2CNCCO2)c2ccccc21` [Example 19], for which the EC50 in data set [1] was determined as 0.0133 µM. Moreover, the Ki was 0.194 µM at human SSTR4; 9.01 µM at human SSTR1; 9.63 µM on human SSTR2; 8.71 µM on human SSTR3; 9.86 µM on human SSTR5. In the data set “in vitro”, this compound showed a half-life at 1 μM of over 2.17 h.
On to `Cn1nc(C(C)(C)NC(=O)[C@@H]2CNCCO2)c2cccc(Cl)c21` [Example 79], for which, in data set [3], the “Half-life t1/2” value came to 1.67 h.
Regarding `Cc1cccc2c(C(C)(C)NC(=O)[C@@H]3CNCCO3)nn(C)c12` [Example 83], in [1], the EC50 is 0.0041 µM. The “Half-life t1/2” value in data set [3] was over 2.17 h.
As to `Cc1cccn2c(C(C)(C)NC(=O)[C@@H]3CNCCO3)ncc12` [Example 95], the EC50 in data set [1] was found to be 0.0045 µM. Further, the inhibition constant (Ki) on human SSTR4 is 0.218 µM; at human SSTR1 it was 9.48 µM; on human SSTR2, 9.63 µM; at human SSTR3 it was 8.69 µM; on human SSTR5, 9.77 µM. In the data set “in vitro”, this compound yielded a half-life at 1 μM of over 2.17 h.

One may read the EC50 as the concentration needed to bring the measured effect to its halfway point. In general, Ki refers to the dissociation constant of the complex between target and ligand, obtained from inhibition or displacement. For orientation: half-life means the time in which the quantity being followed falls by half. A high value points to slow decline.
